In test [1] the target is autolysin E (AtlE) (Staphylococcus aureus, UniProt A0A0H3JT72). Briefly: Surface plasmon resonance (SPR) binding to immobilized AtlE. The following applies: for maximal SPR response compared with the maximal theoretical response: theoretical response calculated from molecular masses of AtlE and compound, surfactant P20 in running buffer. The protocol: The potential inhibitory effect of compounds that bind to AtlE was measured using surface plasmon resonance (SPR). The protein was covalently attached to the surface of the CM5 sensor chip (5200 response units (RU)). The compounds were prepared as 20 mM stock solutions in DMSO and diluted with HEPES running buffer with 2.5% DMSO. Some compounds were less soluble, which was also predicted by the in silico programs and QSAR models for aqueous solubility (see Supplementary Table S3).
The binding of iminosugars was recorded and analyzed using the Biacore T200 3.2.1 software v3.2.1 Evaluation (for results, see Table 1). […] Therefore, for further testing of AtlE binding, the iminosugar derivatives with a lipophilic tail were chosen (1,5-dideoxy-1,5-imino-D-xylitol derivatives (DIX)).
Three compounds, 1, 3 and 8, were identified as AtlE binders. Two of them, 1 and 3, were titrated at eight different concentrations, while compound 8 was titrated firstly at six different concentrations (Figure 4a) and secondly at seven concentrations (Figure S2). The equilibrium dissociation constant KD was estimated using the 1:1 steady-state affinity binding model, with the graphs showing the response units as a function of inhibitor concentration (Figure 4b). […] The maximal theoretical response was calculated using the molecular masses of AtlE and the compounds, respectively. […] Due to the amphiphilicity of the compounds with a hydrophilic sugar unit in the head and a hydrophobic fatty acid residue in the tail, we can assume that both compounds can form oligomeric micelles. To prevent the formation of micelles, we added a surfactant P20 to the running buffer, but the maximum theoretical binding to AtlE was not reached for compounds 1 and 3. This brings into question the true nature of their binding and should be verified by another independent method.
Figure 4 (a) Representative SPR sensorgrams (response curves) and (b) representative saturation curves with evaluated KD for compounds 1, 3 and 8 at different concentrations. SPR analysis of compound 1, 3 and 8 interactions with the immobilized AtlE. Compounds were injected across immobilized AtlE in serial dilutions for 60 s at a rate of […], and the dissociation was followed for 50 s. Sensorgrams are shown along with the apparent equilibrium dissociation constant (KD) determined from the response curves as a function of the compound concentration injected across AtlE. KD values are the mean ± standard deviation of three titrations. The data were fitted to the steady-state affinity binding model.
Surface plasmon resonance (SPR) experiments were performed at 25 °C using a Biacore T200 (Biacore, GE Healthcare, Uppsala, Sweden) instrument with Series S sensor chip CM5 (GE Healthcare). […]

Test [2] relates to S. aureus (ATCC 29213). The experiment in a line: Minimal inhibitory concentration, broth microdilution. Format: cell-based, Staphylococcus aureus. The settings on record: for MIC: Staphylococcus aureus, ATCC29213, broth microdilution, 20 h at 35 °C, read-out: MIC S. aureus ATCC29213. The procedure: (§1) The minimal inhibitory concentrations (MICs) were determined against the bacterial strains S. aureus (ATCC 29213) and E. coli (ATCC 25922), and the results are presented in Table S6.
(§2) Antimicrobial testing was carried out by the broth microdilution method in a 96-well plate format following the CLSI guidelines and European Committee for Antimicrobial Susceptibility Testing (EUCAST) recommendations. Bacterial suspension of a specific bacterial strain equivalent to 0.5 McFarland turbidity standard was diluted with cation-adjusted Mueller Hinton broth to obtain a final inoculum of 10^5 CFU/mL. Compounds dissolved in 20% DMSO and inoculum were mixed together and incubated for 20 h at 35 °C. After incubation, the minimal inhibitory concentration (MIC) values were determined by visual inspection as the lowest dilution of compounds showing no turbidity. The MICs were determined against S. aureus (ATCC 29213) and E. coli (ATCC 25922) bacterial strains. Tetracycline was used as a positive control on every assay plate, showing MICs of 0.5 µg/mL and 1 µg/mL for S. aureus and E. coli, respectively.
Background: In broth dilution the organism is exposed to a series of concentrations in liquid medium.

The test system of test [3] is E. coli (ATCC 25922). The experiment in a line: Minimal inhibitory concentration, broth microdilution (negative control strain). The format is cell-based. The following applies: Escherichia coli, ATCC25922; broth microdilution, 20 h at 35 °C; read-out: MIC E. coli ATCC25922. The procedure:
as §1, §2

Test [4] has as its target α-Glucosidase (from baker's yeast). The following applies: cited from earlier work.
The target of test [5] is α-Galactosidase (from green coffee beans). The settings on record: cited from earlier work.
Test [6] deals with β-Glucosidase (from almond). The following applies: cited from earlier work.
For test [7], the target named is β-Galactosidase (from bovine liver). The following applies: cited from earlier work.
Test [8] deals with naringinase (Nar). The following applies: cited from earlier work.
The target of test [9] is human recombinant β-glucocerebrosidase (GBA). The settings on record: cited from earlier work.
Test [10] has as its target β-galactocerebrosidase (GALC). The settings on record: cited from earlier work.
Where [11] appears, read: pH 7.2, p-nitrophenyl-a-d-glucopyranoside, footnote **.
Setting [12] is: pH 6.8, p-nitrophenyl-a-d-galactopyranoside, footnote **.
[13] abbreviates: pH 5.0, p-nitrophenyl-b-d-glucopyranoside, footnote **.
Setting [14] is: pH 5.2, footnote **, read-out: IC50 GBA pH 5.2.
Setting [15] is: pH 7.0, footnote **, read-out: IC50 GBA pH 7.0.

≈ marks a conversion by molar mass, not a printed value. Entries after “also recorded” stand apart in the source; their conditions may differ. Read-outs that look alike come from different tables or passages of the source.

Chain of autolysin E (AtlE) (A0A0H3JT72 entry or part of it): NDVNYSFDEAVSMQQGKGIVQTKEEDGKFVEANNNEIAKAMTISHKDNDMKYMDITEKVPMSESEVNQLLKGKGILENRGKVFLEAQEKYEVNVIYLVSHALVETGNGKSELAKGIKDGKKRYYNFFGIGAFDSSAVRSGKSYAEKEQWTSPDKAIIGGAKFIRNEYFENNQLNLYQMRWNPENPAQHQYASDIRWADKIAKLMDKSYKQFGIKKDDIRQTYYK

As usually defined, the MIC is the lowest concentration found to suppress growth. In general, IC50 refers to the point on the concentration scale where inhibition reaches its midpoint. In the case of `CCCCCCCCCCCCCCN=C1OCC2C(O)C(O)C(O)CN12` (stereo not drawn) [Compound 1], the “maximal SPR response compared with the maximal theoretical response” value in test [1] is recorded as “higher maximal response than expected; also recorded: higher than expected maximum response”. For the same molecule, the figures for the MIC in test [2] and in test [3] were 8 µM (≈ 3.08 µg/mL) and 125 µM (≈ 48.1 µg/mL), respectively. For the same molecule, in test [2] (in words), the “antibacterial activity against S. aureus ATCC 29213” value was “modest antibacterial activities”. For the same molecule, the IC50 was greater than 100 µM in test [4] (pH 7.2, p-nitrophenyl-α-D-glucopyranoside, footnote *); greater than 100 µM in [5] (pH 6.8, p-nitrophenyl-α-D-galactopyranoside, footnote *); 0.7 ± 0.03 µM in [6] (pH 5.0, p-nitrophenyl-β-D-glucopyranoside, footnote *); 100 ± 30 nM in test [7] (footnote *); 0.2 ± 0.01 µM in test [8] (footnote *); 20 ± 1 nM in [9] (pH 5.2, footnote *, read-out: IC50 GBA pH 5.2). Further, the IC50 in [9] (pH 7.0, footnote *, read-out: IC50 GBA pH 7.0) was 1 ± 1 nM; in test [10] (footnote *), greater than 10 µM. Also, in test [9] (in words), the “IC50 human recombinant β-glucocerebrosidase” value was “low nanomolar range”.

As to `OC[C@H]1NC[C@H](O)[C@@H](O)[C@@H]1O` [1-deoxynojirimycin, reference compound], the “binding of AtlE (SPR)” value in test [1] (tested at 100 µM and 1 mM) is on record as “no binding of AtlE; also recorded: did not inhibit AtlE”.

For the molecule `CCCCCCCCCCNC(=N)N1CC(O)C(O)C(O)C1` (stereo not drawn) [Compound 3], in test [1], the “maximal SPR response compared with the maximal theoretical response” value is recorded as “higher maximal response than expected; also recorded: higher than expected maximum response”. Moreover, the results for the minimal inhibitory concentration (MIC) in test [2] and in [3] were 500 µM (≈ 158 µg/mL) and greater than 500 µM, respectively. Moreover, the IC50 in [4] (setting [11]) is greater than 100 µM; in test [5] (setting [12]) it was greater than 100 µM; in test [6] (setting [13]), 26 ± 0.9 µM; in [7] (footnote **), 2700 ± 200 nM; in test [8] (footnote **) it was 41.5 ± 0.2 µM; in test [9] (setting [14]) it was 90 ± 10 nM. For the same molecule, the IC50 in test [9] (setting [15]) was 30 ± 10 nM; in test [10] (footnote **), greater than 10 µM. The “IC50 human recombinant β-glucocerebrosidase” value in test [9] (in words) is given as “low nanomolar range”.

In the case of `CCCCCCCCCCNC(=O)N1CC(O)C(O)C(O)C1` (stereo not drawn) [Compound 8], the “maximal SPR response compared with the maximal theoretical response” value in test [1] is “achieved the expected maximal theoretical response; also recorded: expected maximum theoretical response was not exceeded”. The minimal inhibitory concentration (MIC) in test [2] and in test [3] was greater than 500 µM in each case. Further, the IC50 in test [4] (setting [11]) is greater than 100 µM; in [5] (setting [12]), greater than 100 µM; in test [6] (setting [13]), greater than 100 µM; in test [7] (footnote **) it was 10400 ± 900 nM; in test [8] (footnote **) it was greater than 100 µM; in [9] (setting [14]) it was greater than 10000 nM. Besides, the IC50 in [9] (setting [15]) was greater than 10000 nM; in test [10] (footnote **), greater than 10 µM. Further, the “inhibitor of β-glucocerebrosidase” value in test [9] (in words, previous studies) is “not as an inhibitor of β-glucocerebrosidase”. Moreover, in [9] (in words), the “binding of human recombinant β-glucocerebrosidase” value is “no binding of this enzyme was observed”.
